14 compounds from patent US8871948B2, “(Aza)indole derivative substituted in position 5, pharmaceutical composition comprising it, intermediate compounds and preparation process therefor” (Aziende Chimiche Riunite Angelini Francesco A.C.R.A.F.S.p.A., priority 2007, dated 2014) can be followed below.

Experiment [1] relates to production of PGE2 in human pulmonary adenocarcinoma cell line A549 (mPGES-1). As to the kind of experiment: Inhibition of PGE2 production in IL-1β-stimulated A549 cells (EIA). The format is cell-based. The following applies: for IC50: IL-1β stimulated, read-out: pIC50 PGE2 (converted). From the text:
(§1) The test used makes it possible to evaluate the inhibitory capacity of the test compounds on the production of PGE2 and the selectivity relative to the production of PGF2α. The human pulmonary adenocarcinoma cell line A549 was used, which is particularly sensitive to stimulation with proinflammatory cytokines, for instance IL-1β, and, in response to this stimulation, is particularly active in the production and release of two prostanoids: PGE2 and PGF2α (Thoren S. Jakobsson P-J, 2000).
(§2) The cells were stimulated with IL-1β (10 ng/ml) and simultaneously treated with the test compound for 22 hours in a suitable culture medium (DMEM Dulbecco's Modified Eagles Medium) enriched with 5% fetal calf serum and L-glutamine (4 mM final) in an incubator at 37° C. and with a CO2 concentration of 5%.
(§3) At the end of the incubation, the amount of PGE2 and PGF2α produced and released into the supernatant were assayed using an EIA kit (produced and sold by Cayman Chemicals, Ann Arbor, Mich., USA).
(§4) The comparative compound used was indomethacin at a concentration of 10 nM (Sigma-Aldrich), which is a non-steroidal anti-inflammatory drug that inhibits in equal measure both PGE2 and PGF2α.
(§5) For illustrative purposes, Table 3 collates the pIC50 values of a number of compounds of the invention, where pIC50 represents the negative logarithm of the IC50, which, in turn, represents the concentration of compound that inhibits the production of PGE2 or PGF2α by 50% relative to cells that are stimulated but not treated with the same compound.

Experiment [2] concerns production of PGF2α in human pulmonary adenocarcinoma cell line A549. Nature of the experiment: Inhibition of PGF2α production in IL-1β-stimulated A549 cells (EIA). The format is cell-based. The following applies: for IC50: IL-1β stimulated, read-out: pIC50 PGF2α (converted).
From the text: as §1, §2, §3, §4, §5

Experiment [3] concerns production of PGE2 in human lymphoma cell line U-937 (cPGES). As to the kind of experiment: Inhibition of PGE2 production in U-937 cells (selectivity between isoforms of PGES). The following applies: basal conditions. The format is cell-based. From the text:
The test used makes it possible to evaluate the capacity of the compounds of the invention to inhibit the production of PGE2 in a human lymphoma cell line U-937 that preferentially expresses an enzymatic isoform (cPGES), which is responsible for the production of PGE2 under basal conditions, in the absence of pro-inflammatory stimuli. This enzymatic form is different from the one predominantly expressed in the A549 cells (mPGES-1) after a pro-inflammatory stimulus.
The absence of inhibitory activity on PGE2 in this cell model ensures the selectivity of the compound compared with the enzymatic form responsible for the production of PGE2 in the presence of inflammatory stimuli.
The reference compound used was indomethacin at a concentration of 10 nM.

For experiment [4], the system named is acetic acid-induced stretching in mice. As to the kind of experiment: Acetic acid-induced stretching in mice. The settings on record: female CD-1 mice; for N° of stretches: 20 minutes after acetic acid; for % inhibition (stretches): vs vehicle (MTC). The format is in vivo. The protocol:
The test compound was evaluated in the model of acetic acid-induced stretching in mice (Stock J. L. et al., J Clin Inv 2001, 107: 325-331). This test makes it possible to evaluate the antinociceptive activity of the compounds of the invention in a model of inflammatory pain.
Female CD-1 mice weighing 25-30 g were used for the test. […] The control animals were treated with the vehicle alone (MTC) via the same route.
30 minutes after the treatment, the animals received an intraperitoneal injection of acetic acid (0.7 v/v in physiological solution, 16 μl/g of body weight) in order to induce inflammatory pain and to check the effects of the test compound on the nociceptive response.
Immediately after the administration of acetic acid and for the following 20 minutes, the number of stretches, which represents the parameter for evaluation of the nociceptive response, was measured.

[5] abbreviates: 10 nM, IL-1β 10 ng/ml, 22 hours.

Some results are limits rather than exact numbers.

A word on the inhibition: it is the relative decrease from the control value, in per cent. Read a low inhibition as a response near the control. `O=C(Nc1ccc2c(c1)cc(-c1ccc(F)cc1)n2CCO)c1c(F)cccc1C(F)(F)F` [Compound 38]: the inhibition at 10 µM is 42% in experiment [1] (IL-1β 10 ng/ml, 22 hours) and < 20% in experiment [2] (IL-1β 10 ng/ml, 22 hours). Moreover, the IC50 in experiment [1] was 25.1 µM.

Turning to `COCCn1c(-c2ccccc2)cc2cc(NC(=O)c3ccccc3Cl)ccc21` [Compound 12], the inhibition at 10 µM in experiment [1] (IL-1β 10 ng/ml, 22 hours) was 78%; in experiment [2] (IL-1β 10 ng/ml, 22 hours) it was < 20%; in experiment [3], < 20%. In addition, the IC50 in experiment [1] is 3.16 µM.

For `CCn1c(Cc2ccccc2)cc2cc(NC(=O)c3ccccc3Cl)ccc21` [Compound 34], the inhibition at 10 µM was found to be 83% in experiment [1] (IL-1β 10 ng/ml, 22 hours) and 44% in experiment [2] (IL-1β 10 ng/ml, 22 hours). In addition, in experiment [1], the IC50 was 2.51 µM.

On to `CS(=O)(=O)n1c(-c2cccc(C(F)(F)F)c2)cc2cc(NC(=O)c3ccccc3Cl)ccc21` [Compound 22], for which the inhibition at 10 µM was 94% in experiment [1] (IL-1β 10 ng/ml, 22 hours); 44% in experiment [2] (IL-1β 10 ng/ml, 22 hours); < 20% in experiment [3]. The IC50 is 1.58 µM in experiment [1] and 25.1 µM in experiment [2].

For the compound `COc1ccc2c(c1)c(CC(=O)O)c(C)n2C(=O)c1ccc(Cl)cc1` [Indomethacin, indomethacin, reference compound], the inhibition at 0.01 µM in experiment [1] (setting [5]), in experiment [2] (setting [5]) and in experiment [3] (10 nM) was 100% each time. Besides, the IC50 in experiment [1] is 0.00501 µM; in experiment [2], 0.00251 µM.

Turning to `CCn1c(CCc2ccccc2)cc2cc(NC(=O)c3ccccc3Cl)ccc21` [Compound 33], the inhibition at 10 µM in experiment [1] (IL-1β 10 ng/ml, 22 hours) is 41%; in experiment [2] (IL-1β 10 ng/ml, 22 hours), < 20%.

As to `CCOC(=O)CCCn1c(-c2ccccc2)cc2cc(NC(=O)c3ccccc3Cl)ccc21` [Compound 7], the inhibition at 10 µM in experiment [1] (IL-1β 10 ng/ml, 22 hours) is 76%; in experiment [2] (IL-1β 10 ng/ml, 22 hours), < 20%. Also, in experiment [1], the IC50 is 3.98 µM.

As for `CS(=O)(=O)n1c(CCc2ccccc2)cc2cc(NC(=O)c3ccccc3Cl)ccc21` [Compound 21], the inhibition at 10 µM in experiment [1] (IL-1β 10 ng/ml, 22 hours) was 69%; in experiment [2] (IL-1β 10 ng/ml, 22 hours), < 20%. For the same compound, the IC50 in experiment [1] is 0.501 µM.

Regarding `CC(=O)OCCCn1c(-c2ccccc2)cc2cc(NC(=O)c3ccccc3Cl)ccc21` [Compound 13], the inhibition at 10 µM is 61% in experiment [1] (IL-1β 10 ng/ml, 22 hours); < 20% in experiment [2] (IL-1β 10 ng/ml, 22 hours); < 20% in experiment [3]. The IC50 in experiment [1] is 7.94 µM.

On to `O=C(Nc1ccc2c(c1)cc(-c1ccc(F)cc1)n2CCO)c1c(Cl)cccc1Cl` [Compound 36], for which the inhibition at 10 µM in experiment [1] (IL-1β 10 ng/ml, 22 hours) was 40%; in experiment [2] (IL-1β 10 ng/ml, 22 hours) it was < 20%. Also, the IC50 in experiment [1] was 50.1 µM.

On to `CCn1c(-c2ccc(C)cc2)cc2cc(NC(=O)c3ccccc3Cl)cnc21` [Compound 1], for which the inhibition at 10 µM was 59% in experiment [1] (IL-1β 10 ng/ml, 22 hours) and < 20% in experiment [2] (IL-1β 10 ng/ml, 22 hours).

Regarding `O=C(Nc1ccc2c(c1)cc(-c1ccc(Cl)cc1)n2CCO)c1ccc(F)cc1C(F)(F)F` [Compound 37], the inhibition at 10 µM in experiment [1] (IL-1β 10 ng/ml, 22 hours) was 73%; in experiment [2] (IL-1β 10 ng/ml, 22 hours), < 20%. In addition, the IC50 in experiment [1] is 6.31 µM.

As for `CCn1c(C2CCCCC2)cc2cc(NC(=O)c3ccccc3Cl)ccc21` [Compound 10], the inhibition at 10 µM was 78% in experiment [1] (IL-1β 10 ng/ml, 22 hours); < 20% in experiment [2] (IL-1β 10 ng/ml, 22 hours); < 20% in experiment [3]. Moreover, the IC50 in experiment [1] is 1.58 µM. Further, the “N° of stretches” value in experiment [4] (0.01 mg/kg intraperitoneally) worked out at 47 ± 4.3; in experiment [4] (0.1 mg/kg intraperitoneally), 34 ± 3.2; in experiment [4] (1 mg/kg intraperitoneally), 33 ± 3.9; in experiment [4] (10 mg/kg intraperitoneally), 21 ± 3.2. The “% inhibition (stretches)” value in experiment [4] (0.01 mg/kg intraperitoneally) is reported as 5.9 ± 8.76%; in experiment [4] (0.1 mg/kg intraperitoneally), 33.2 ± 6.16%; in experiment [4] (1 mg/kg intraperitoneally), 33.6 ± 8.04%; in experiment [4] (10 mg/kg intraperitoneally), 57.5 ± 6.57%.

`O=C(Nc1ccc2c(c1)cc(C(=O)Nc1ccccc1)n2CCCO)c1ccccc1C(F)(F)F` [Compound 35]: the inhibition at 10 µM in experiment [1] (IL-1β 10 ng/ml, 22 hours) turned out to be 88%; in experiment [2] (IL-1β 10 ng/ml, 22 hours) it was 13%. Moreover, the IC50 in experiment [1] was 2.51 µM; in experiment [2], 31.6 µM.
